Measured values reported in patent US20090023784A1, “USE OF DEFERIPRONE AND METHODS TO TREAT AND/OR PREVENT FRIEDREICH ATAXIA RESULTING FROM INTRACELLULAR MISHANDLING OF IRON” (priority 2006, published 2009).

Key:
iron-loaded rats = assay: Tissue iron content (ICP-MS) in iron-loaded rats treated with deferiprone; format: in vivo; conditions: 100 mg/kg daily oral gavage
Protocol: As part of a larger study comparing iron chelators, we conducted histologic examination and electron microscopy (EM) of tissues following iron loading (100 mg/kg iron dose intraperitoneally twice weekly for four weeks) in rats (200-250 g) and treatment with deferiprone. Two control groups of rats were studied, one with no iron loading (“Naïve”) and the other with iron loading but no iron chelation.
Deferiprone was administered five times weekly (daily Monday to Friday). The animals received 89 doses in 127 days of 100 mg/kg daily, by oral gavage.
Iron content in micrograms per gram dry tissue±SD as determined by ICP-MS

[1] = test system: intracellular iron pools of macrophages, hepatocytes, and cardiomyocyte cell lines; conditions: living cells, fluorescence probes; cited from earlier work
[2] = Pilot trial: adverse events and biological parameters (hemoglobin, plasma iron, ferritin); format: in vivo, human
Excerpt: Ten adolescents (four males, six females aged 14 to 23 yrs) with a diagnosis of Friedreich ataxia, confirmed by detection of a trinucleotide-repeat expansion in the first intron of the frataxin gene, were studied. Patients received deferiprone (Ferriprox™, Apotex Inc., Toronto, Canada) orally, in two doses for 1-5 months. Three patients were included, sequentially, for a minimum period of two months at each dose. Patient enrollment was staggered by two-weeks to enable monitoring of response. In the absence of toxicity, and with evidence of efficacy in any of the first 3 patients, a second group of 3 patients would be included at the same dose for a total duration of 6 months. If there was an absence of both efficacy and toxicity, the second group of three patients would be administered a higher dose. If toxicity developed, the current dose would be suspended and the trial resumed with the next group of patients at a lower dose. The patients were on idebenone (10 mg/kg/day, in three doses) for at least two years prior to inclusion and were kept on the drug at the same dose for the duration of the trial. MRI examinations were done at inclusion and at 1, 2, 4 and 6 months. The protocol was promoted by Assistance Publique-Hopitaux de Paris and approved by the local ethical committee and registered at the National Health Authority (AFSSAPS) and at the International Protocol Registration System (www.clinicaltrials.gov). A written informed consent was obtained from patients and parents.
The International Cooperative Ataxia Rating Score (ICARS) was used to assess the symptoms of ataxia before and after 1-5 months (Cano et al. International cooperative ataxia rating scale (ICARS): Appropriate for studies of Friedreich's ataxia? Mov Disord 2005; 20:1585-91). […] Patients were monitored for neutropenia, agranulocytosis, musculoskeletal pains and zinc deficiency and had weekly blood counts, plasma iron, serum ferritin and transferrin concentration measurements, as well as assessments of renal and liver function.

[3] = 52-week twice daily oral (gavage) toxicity study of deferiprone in non-iron-loaded monkeys; format: in vivo, cynomolgus monkeys
Protocol: As part of a larger study on the potential toxicity of iron chelators, we evaluated the toxicity of deferiprone in normal monkeys receiving 150 mg/kg/day (75 mg/kg twice daily) for 1 year.
To determine the toxicity of deferiprone in non-iron-loaded cynomolgus monkeys following twice daily oral (gavage) administration for 52 consecutive weeks, and to evaluate the regression of any toxic effect during a 4-week treatment-free period.
Groups of 4 male and 4 female monkeys (2 to 3 years old) were dosed by nasogastric intubation at (0.5% w/v aqueous carboxymethylcellulose vehicle) 75 mg/kg deferiprone twice daily (bid), with 6-8 hours between doses, for at least 364 days.
Clinical signs, body weights and food intake were assessed at frequent intervals. Ophthalmological and cardiovascular examinations were carried out in Weeks 17, 30, 43, 56 and 60. Hematology, coagulation, clinical chemistry and urine parameters were measured at baseline and in Weeks 8, 16, 30, 41, 56 and 60. Blood samples were taken on the first day of dosing, and in Weeks 17 and 56 for assessment of the serum deferiprone time-concentration profile. A full necropsy was performed on each animal, selected organs weighed, and histopathological examination of abnormalities and selected tissues conducted.

Cc1c(O)c(=O)ccn1C [Deferiprone, 3-hydroxy-1,2-dimethylpyridin-4-one]
Iron content, Skeletal Muscle (iron-loaded rats; 89 doses in 127 days, ±SD, Fe-control 205 ± 109, Naive 50 ± 17): 146 ± 49 micrograms per gram dry tissue | Iron content, Thyroid (iron-loaded rats; 89 doses in 127 days, ±SD, Fe-control 583 ± 275, Naive 95 ± 13): 425 ± 228 micrograms per gram dry tissue | Iron content, Kidney (iron-loaded rats; 89 doses in 127 days, ±SD, Fe-control 801 ± 39, Naive 305 ± 80): 642 ± 104 micrograms per gram dry tissue | Iron content, Heart (iron-loaded rats; 89 doses in 127 days, ±SD, Fe-control 1,088 ± 36, Naive 276 ± 25): 586 ± 143 micrograms per gram dry tissue | Iron content, Lung (iron-loaded rats; 89 doses in 127 days, ±SD, Fe-control 1,234 ± 227, Naive 376 ± 45): 1065 ± 101 micrograms per gram dry tissue | Iron content, Liver (iron-loaded rats; 89 doses in 127 days, ±SD, Fe-control 11,534 ± 554, Naive 376 ± 127): 7,780 ± 1,637 micrograms per gram dry tissue | effect on iron levels in organs (iron-loaded rats; iron-loaded rats): decreased the iron levels in the liver and heart and most other organs | access to intracellular iron pools / chelation [1]: readily enter most cells and efficiently reach the major intracellular sites of iron accumulation | signs of toxicity ([2]; 20 mg/kg/day oral): without signs of toxicity, other than minor adverse effects, such as nausea | adverse events ([2]; 80 mg/kg/day oral, first patient (P1), terminated at day 17, slowly reversed on drug termination): fatigue, headache, nausea, dizziness, then floppiness, poor head control, abnormal eye movements and fluctuating consciousness | impact on the levels of hyposideremic anemia and hypoferritinemia ([2]; regardless of the dose (20 and 30 mg/kg/day)): negligible impact | adverse effect (conclusion) ([3]; 75 mg/kg twice daily orally for 52 weeks): without significant adverse effect | Clinical signs ([3]; 75 mg/kg twice daily, 52 weeks): incidental to administration of deferiprone by the IP route | deferiprone-related effects on body weight, food intake, ophthalmology, cardiac conduction, blood pressure, heart rate, hematology or urine composition ([3]; 75 mg/kg twice daily, oral gavage, 52 weeks): no deferiprone-related effects | microscopic findings ([3]; 75 mg/kg twice daily, oral gavage, 52 weeks, histopathology): No microscopic findings | macroscopic findings ([3]; 75 mg/kg twice daily, oral gavage, 52 weeks, necropsy): No macroscopic findings related to deferiprone
